Test results as given in patent US20100184699A1, “Peptide Derived From Prostate-Related Protein As Cancer Vaccine Candidate For Prostate Cancer Patient Who Is Positive For Hla-A3 Super-Type Allele Molecule” (priority 2005, published 2010).

Tested on: peptide-specific IgG in plasma of prostate cancer patients and healthy donors
Assay: Detection of peptide-specific IgG in plasma by ELISA
Format: binding, human
Settings: for IgG reactive to peptide in plasma: 1:100-diluted plasma
[1] = Prostate cancer patient 14, A33

Sequence | IgG reactive to peptide in plasma, Total (positive/tested) (Healthy donors) | IgG reactive to peptide in plasma (Prostate cancer patient 10, A11) | IgG reactive to peptide in plasma, Total (positive/tested) (Prostate cancer patients) | IgG reactive to peptide in plasma (Healthy donor 8, A31) | IgG reactive to peptide in plasma (Prostate cancer patient 9, A11) | IgG reactive to peptide in plasma (Prostate cancer patient 13, A11) | IgG reactive to peptide in plasma [1] | IgG reactive to peptide in plasma (Prostate cancer patient 2, A31) | IgG reactive to peptide in plasma (Prostate cancer patient 4, A31) | IgG reactive to peptide in plasma (Prostate cancer patient 6, A31) | IgG reactive to peptide in plasma (Prostate cancer patient 12, A11) | IgG reactive to peptide in plasma (Prostate cancer patient 17, A33) | IgG reactive to peptide in plasma (Prostate cancer patient 19, A33)
VTKFMLCAGR (PSA 192-201) [PSA-derived peptide] | 0/9 | + (IgG reactive to a corresponding peptide was judged to be positive when a difference of the optical density (OD) in a 1:100-diluted plasma was more than 100) | 1/20 | – | – | – | – | – | – | – | – | – | –
VTLVFRHGDR (PAP 38-47) [PAP-derived peptide] | 1/9 | – | 1/20 | + (IgG reactive to a corresponding peptide was judged to be positive when a difference of the optical density (OD) in a 1:100-diluted plasma was more than 100) | + (IgG reactive to a corresponding peptide was judged to be positive when a difference of the optical density (OD) in a 1:100-diluted plasma was more than 100) | – | – | – | – | – | – | – | –
VYIRSTDVDR (PAP 102-111) [PAP-derived peptide] | 0/9 | – | 2/20 | – | – | + (IgG reactive to a corresponding peptide was judged to be positive when a difference of the optical density (OD) in a 1:100-diluted plasma was more than 100) | + (IgG reactive to a corresponding peptide was judged to be positive when a difference of the optical density (OD) in a 1:100-diluted plasma was more than 100) | – | – | – | – | – | –
WVLTAAHCIR [PSA 59-68] | 0/9 | – | 0/20 | – | – | – | – | – | – | – | – | – | –
YPANEYAYRR (PSMA 272-281) [PSMA-derived peptide] | 0/9 | – | 8/20 | – | + (IgG reactive to a corresponding peptide was judged to be positive when a difference of the optical density (OD) in a 1:100-diluted plasma was more than 100) | – | + (IgG reactive to a corresponding peptide was judged to be positive when a difference of the optical density (OD) in a 1:100-diluted plasma was more than 100) | + (IgG reactive to a corresponding peptide was judged to be positive when a difference of the optical density (OD) in a 1:100-diluted plasma was more than 100) | + (IgG reactive to a corresponding peptide was judged to be positive when a difference of the optical density (OD) in a 1:100-diluted plasma was more than 100) | + (IgG reactive to a corresponding peptide was judged to be positive when a difference of the optical density (OD) in a 1:100-diluted plasma was more than 100) | + (IgG reactive to a corresponding peptide was judged to be positive when a difference of the optical density (OD) in a 1:100-diluted plasma was more than 100) | + (IgG reactive to a corresponding peptide was judged to be positive when a difference of the optical density (OD) in a 1:100-diluted plasma was more than 100) | + (IgG reactive to a corresponding peptide was judged to be positive when a difference of the optical density (OD) in a 1:100-diluted plasma was more than 100)
